According to PubChem BioAssay AID342 (DTP/NCI, 2004):
“And” between values parts separate entries of the source, which are not always exact repeats. Equal entries are not always repeated. Square brackets hold non-standard residues; d marks the D form. Peptide text beside a SMILES is read from it. Ac5c = NC1(C(=O)O)CCCC1

Test system: Swiss mice, Sarcoma 180 sc, mean tumor weight T/C
Experiment: NCI In Vivo Anticancer Drug Screen. Data for tumor model Sarcoma 180 (subcutaneous) in Swiss mice
Settings: endpoint: mean tumor weight, higher = larger tumour
Procedure: The antitumor activity of compounds was measured in mice bearing transplantable tumors. Survival or tumor size were measured and the results are expressed as the measurement made in the treated group (T) divided by the measurement made in the vehicle treated control group (C). The tumor model used in this assay is Sarcoma 180 (subcutaneous) in Swiss mice

[1] = dose: 50.0 mg/kg/injection, schedule: Q01DX007 (ip), vehicle: carboxymethylcellulose (CMC)

C[C@]12C=CC(=O)C=C1CC[C@@H]1[C@@H]2[C@@H](O)C[C@@]2(C)[C@H]1CC[C@]2(O)C(=O)CF
T/C (dose: 6.0 mg/kg/injection, schedule: Q01DX007 (sc), vehicle: steriod suspending solution): 77 % of control
T/C (dose: 9.0 mg/kg/injection, schedule: Q01DX007 (sc), vehicle: steriod suspending solution): 91 % of control
T/C (dose: 13.3 mg/kg/injection, schedule: Q01DX007 (sc), vehicle: steriod suspending solution): 82 % of control
T/C (dose: 20.0 mg/kg/injection, schedule: Q01DX007 (sc), vehicle: steriod suspending solution): 35 % of control and 49 % of control and 54 % of control
T/C (dose: 45.0 mg/kg/injection, schedule: Q01DX007 (sc), vehicle: steriod suspending solution): 32 % of control
T/C (dose: 70.0 mg/kg/injection, schedule: Q01DX007 (sc), vehicle: steriod suspending solution): 27 % of control and 32 % of control and 36 % of control
T/C (dose: 107.0 mg/kg/injection, schedule: Q01DX007 (sc), vehicle: steriod suspending solution): 32 % of control
T/C (dose: 158.0 mg/kg/injection, schedule: Q01DX007 (sc), vehicle: steriod suspending solution): 36 % of control
T/C (dose: 160.0 mg/kg/injection, schedule: Q01DX007 (sc), vehicle: steriod suspending solution): 24 % of control
T/C (dose: 352.0 mg/kg/injection, schedule: Q01DX007 (sc), vehicle: steriod suspending solution): 52 % of control
T/C (dose: 358.0 mg/kg/injection, schedule: Q01DX007 (sc), vehicle: steriod suspending solution): 33 % of control
T/C (dose: 360.0 mg/kg/injection, schedule: Q01DX007 (sc), vehicle: steriod suspending solution): 33 % of control
T/C (dose: 537.0 mg/kg/injection, schedule: Q01DX007 (sc), vehicle: steriod suspending solution): 39 % of control and 56 % of control
T/C (dose: 540.0 mg/kg/injection, schedule: Q01DX007 (sc), vehicle: steriod suspending solution): 20 % of control and 22 % of control
T/C (dose: 801.0 mg/kg/injection, schedule: Q01DX007 (sc), vehicle: steriod suspending solution): 49 % of control
T/C (dose: 1202.0 mg/kg/injection, schedule: Q01DX007 (sc), vehicle: steriod suspending solution): 61 % of control

C[C@]12C=CC(=O)C=C1CC[C@@H]1[C@@H]2CC[C@]2(C)OC(=O)CC[C@@H]12
T/C (dose: 250.0 mg/kg/injection, schedule: Q01DX007 (sc), vehicle: steriod suspending solution): 74 % of control and 99 % of control
T/C (dose: 500.0 mg/kg/injection, schedule: Q01DX007 (sc), vehicle: steriod suspending solution): 83 % of control and 105 % of control

CCCCOCN1CCCCC1
T/C [1]: 64 % of control
T/C (dose: 100.0 mg/kg/injection, schedule: Q01DX007 (ip), vehicle: carboxymethylcellulose (CMC)): 123 % of control

COc1ccc2c(c1O)-c1c(OC)c(OC)cc3c1[C@H](C2)[N+](C)(C)CC3
T/C (dose: 2.5 mg/kg/injection, schedule: Q01DX007 (ip), vehicle: saline): 108 % of control
T/C (dose: 5.0 mg/kg/injection, schedule: Q01DX007 (ip), vehicle: saline): 100 % of control

CCCCN(C)N=Nc1ccc(C(N)=O)cc1
T/C [1]: 67 % of control
T/C (dose: 75.0 mg/kg/injection, schedule: Q01DX007 (ip), vehicle: carboxymethylcellulose (CMC)): 32 % of control

CC(C)([NH-])CO.CC(C)([NH-])CO.[Cl][Cd][Cl]
T/C (dose: 1.0 mg/kg/injection, schedule: Q#A X014 (ip), vehicle: methylcellulose (MC)): 50 % of control
T/C (dose: 1.0 mg/kg/injection, schedule: Q#A X014 (ip), vehicle: other): 91 % of control
T/C (dose: 1.5 mg/kg/injection, schedule: Q#A X014 (ip), vehicle: methylcellulose (MC)): 113 % of control
T/C (dose: 1.5 mg/kg/injection, schedule: Q#A X014 (ip), vehicle: other): 104 % of control
T/C (dose: 1.75 mg/kg/injection, schedule: Q#A X014 (ip), vehicle: methylcellulose (MC)): 70 % of control
T/C (dose: 2.5 mg/kg/injection, schedule: Q#A X014 (ip), vehicle: methylcellulose (MC)): 85 % of control
T/C (dose: 2.5 mg/kg/injection, schedule: Q#A X014 (ip), vehicle: other): 85 % of control
T/C (dose: 2.65 mg/kg/injection, schedule: Q#A X014 (ip), vehicle: methylcellulose (MC)): 73 % of control
T/C (dose: 3.75 mg/kg/injection, schedule: Q#A X014 (ip), vehicle: methylcellulose (MC)): 73 % of control
T/C (dose: 3.75 mg/kg/injection, schedule: Q#A X014 (ip), vehicle: other): 102 % of control
T/C (dose: 4.0 mg/kg/injection, schedule: Q#A X014 (ip), vehicle: methylcellulose (MC)): 49 % of control
T/C (dose: 6.0 mg/kg/injection, schedule: Q#A X014 (ip), vehicle: methylcellulose (MC)): 36 % of control

CCCn1cnc2c(=S)nc[nH]c21
T/C (dose: 43.0 mg/kg/injection, schedule: Q01DX007 (ip), vehicle: carboxymethylcellulose (CMC)): 75 % of control
T/C (dose: 61.0 mg/kg/injection, schedule: Q01DX007 (ip), vehicle: carboxymethylcellulose (CMC)): 44 % of control
T/C (dose: 93.0 mg/kg/injection, schedule: Q01DX007 (ip), vehicle: carboxymethylcellulose (CMC)): 35 % of control
T/C (dose: 140.0 mg/kg/injection, schedule: Q01DX007 (ip), vehicle: carboxymethylcellulose (CMC)): 28 % of control

Nc1cc(SCc2ccccc2)nc(N)n1
T/C (dose: 18.75 mg/kg/injection, schedule: Q#A X014 (ip), vehicle: methylcellulose (MC)): 52 % of control
T/C (dose: 37.5 mg/kg/injection, schedule: Q#A X014 (ip), vehicle: methylcellulose (MC)): 70 % of control
T/C (dose: 66.5 mg/kg/injection, schedule: Q#A X014 (ip), vehicle: methylcellulose (MC)): 29 % of control
T/C (dose: 75.0 mg/kg/injection, schedule: Q#A X014 (ip), vehicle: methylcellulose (MC)): 68 % of control
T/C (dose: 100.0 mg/kg/injection, schedule: Q#A X014 (ip), vehicle: methylcellulose (MC)): 40 % of control
T/C (dose: 225.0 mg/kg/injection, schedule: Q#A X014 (ip), vehicle: methylcellulose (MC)): 35 % of control

NC1(C(=O)NC2(C(=O)O)CCCC2)CCCC1 (H-[Ac5c]-[Ac5c]-OH)
T/C (dose: 7.5 mg/kg/injection, schedule: Q#A X014 (ip), vehicle: carboxymethylcellulose (CMC)): 66 % of control
T/C (dose: 15.0 mg/kg/injection, schedule: Q#A X014 (ip), vehicle: carboxymethylcellulose (CMC)): 65 % of control
T/C (dose: 30.0 mg/kg/injection, schedule: Q#A X014 (ip), vehicle: carboxymethylcellulose (CMC)): 58 % of control
T/C (dose: 60.0 mg/kg/injection, schedule: Q#A X014 (ip), vehicle: carboxymethylcellulose (CMC)): 32 % of control

C/C=C(/C)C(=O)O[C@H]1CCN2CC=C(COC(=O)[C@@](O)([C@H](C)OC)C(C)(C)O)[C@H]12
T/C (dose: 12.0 mg/kg/injection, schedule: Q01DX007 (ip), vehicle: carboxymethylcellulose (CMC)): 117 % of control
T/C (dose: 18.0 mg/kg/injection, schedule: Q01DX007 (ip), vehicle: carboxymethylcellulose (CMC)): 73 % of control
T/C (dose: 26.6 mg/kg/injection, schedule: Q01DX007 (ip), vehicle: carboxymethylcellulose (CMC)): 48 % of control
T/C (dose: 40.0 mg/kg/injection, schedule: Q01DX007 (ip), vehicle: carboxymethylcellulose (CMC)): 40 % of control

CN(Cc1cnc2nc(NCNC(=O)C3=C(O)[C@@]4(O)C(=O)C5=C(O)c6c(O)cccc6[C@@](C)(O)[C@H]5C[C@H]4[C@H](N(C)C)C3=O)nc(N)c2n1)c1ccc(C(=O)NC(CCC(=O)O)C(=O)O)cc1 (some centres not stated)
T/C (dose: 1.5 mg/kg/injection, schedule: Q01DX007 (ip), vehicle: saline): 76 % of control
T/C (dose: 3.0 mg/kg/injection, schedule: Q01DX007 (ip), vehicle: saline): 52 % of control
T/C (dose: 6.0 mg/kg/injection, schedule: Q01DX007 (ip), vehicle: saline): 16 % of control
